For the assay, the target named is T1, GFRα1-RET (Homo sapiens, UniProt P56159).
T1 construct: expressed in transfected cells; host or cells: MG87 murine fibroblast
T1 sequence (P56159 25-429 limits assumed): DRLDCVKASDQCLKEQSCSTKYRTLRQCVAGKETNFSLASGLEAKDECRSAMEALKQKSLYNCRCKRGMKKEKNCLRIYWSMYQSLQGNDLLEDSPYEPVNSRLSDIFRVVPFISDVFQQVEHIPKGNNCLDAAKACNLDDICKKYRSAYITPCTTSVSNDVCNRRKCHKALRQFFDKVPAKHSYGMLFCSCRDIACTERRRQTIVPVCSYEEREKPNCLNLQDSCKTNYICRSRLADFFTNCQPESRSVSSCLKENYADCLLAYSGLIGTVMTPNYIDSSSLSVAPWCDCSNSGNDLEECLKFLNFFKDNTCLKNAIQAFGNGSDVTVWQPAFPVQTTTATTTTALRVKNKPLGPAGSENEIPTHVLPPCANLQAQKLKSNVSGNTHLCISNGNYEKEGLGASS
T1 sequence (P07949 29-1114 partner): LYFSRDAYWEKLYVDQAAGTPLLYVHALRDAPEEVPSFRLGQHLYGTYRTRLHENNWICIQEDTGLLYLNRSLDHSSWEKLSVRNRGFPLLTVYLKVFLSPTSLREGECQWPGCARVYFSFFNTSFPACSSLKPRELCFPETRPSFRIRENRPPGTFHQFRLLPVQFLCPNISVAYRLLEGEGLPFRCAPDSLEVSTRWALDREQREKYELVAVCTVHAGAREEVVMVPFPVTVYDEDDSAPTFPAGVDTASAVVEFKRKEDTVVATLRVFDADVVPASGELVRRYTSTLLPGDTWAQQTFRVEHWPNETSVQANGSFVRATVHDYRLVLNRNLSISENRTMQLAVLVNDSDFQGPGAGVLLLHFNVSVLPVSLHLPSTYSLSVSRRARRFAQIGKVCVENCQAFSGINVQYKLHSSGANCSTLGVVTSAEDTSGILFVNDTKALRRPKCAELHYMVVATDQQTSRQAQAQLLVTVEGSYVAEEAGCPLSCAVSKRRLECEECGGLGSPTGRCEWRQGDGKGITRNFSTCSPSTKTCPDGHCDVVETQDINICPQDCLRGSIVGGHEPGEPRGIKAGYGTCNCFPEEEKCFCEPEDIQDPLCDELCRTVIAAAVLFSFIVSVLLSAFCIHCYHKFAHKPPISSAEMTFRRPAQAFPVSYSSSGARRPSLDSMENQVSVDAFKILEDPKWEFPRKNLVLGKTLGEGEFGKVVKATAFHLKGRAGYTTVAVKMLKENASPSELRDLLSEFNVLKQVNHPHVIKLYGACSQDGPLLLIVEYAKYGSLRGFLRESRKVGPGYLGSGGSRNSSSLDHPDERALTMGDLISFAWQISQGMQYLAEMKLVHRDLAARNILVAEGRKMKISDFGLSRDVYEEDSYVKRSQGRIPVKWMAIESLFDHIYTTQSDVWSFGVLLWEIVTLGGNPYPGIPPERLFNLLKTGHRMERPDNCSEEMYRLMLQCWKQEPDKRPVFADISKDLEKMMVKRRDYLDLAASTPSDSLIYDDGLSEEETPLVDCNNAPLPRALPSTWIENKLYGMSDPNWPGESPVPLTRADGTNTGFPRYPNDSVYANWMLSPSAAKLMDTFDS
The assay can be described thus: Luciferase assay: activation of Elk1 signaling in reporter-gene cells expressing GFRα1-RET (MG87 murine fibroblast stably transfected with PathDetect Elk-1, GFRα1, and RET). It is filed as cell-based. Particulars: Table 4; MG87 murine fibroblasts with PathDetect Elk-1, GFRα1, RET; 6 concentrations, duplicate, two times independently; agonist/activator activity; read-out: Luciferase Assay EC50. The method, then: The purpose of this experiment was to evaluate the GFRα1-RET activity of the compounds 001-060 according to the invention.
The compounds were tested for their activating activity of Elk1 signaling using the previously developed reporter-gene-based system in cells expressing GFRα1-RET (MG87 murine fibroblast stably transfected with PathDetect Elk-1, GFRα1, and RET) disclosed in Sidorova, Y. A. et al.: “Persephin signaling through GFRα1: The potential for the treatment of Parkinson's disease.” Molecular and Cellular Neuroscience, July 2010, Vol. 44, pp. 223-232. DOI: 10.1016/j.mcn.2010.03.009. For EC50 determination, a dose-response test was performed using 6 concentrations of each tested compound. Dose-response curves were fitted using the sigmoidal dose-response (variable slope) analysis in GraphPad Prism program (Graph Pad Inc) and EC50 of agonist/activator activity was calculated. Dose-response experiments were all performed in duplicate, two times independently.
The compounds were tested for their activating activity of Elk1 signaling using the same materials and methods than for the compounds according to the invention (Example 2 herein, section “Materials and methods”).
Regarding `COc1ccc(S(=O)(=O)N2CCC(C(F)(F)F)CC2)cc1N1CCN(C(=O)c2ccc(F)cc2Cl)CC1` [Compound 031, (2-chloro-4-fluoro-phenyl)-[4-[2-methoxy-5-[[4-(trifluoromethyl)-1-piperidyl]sulfonyl]phenyl]piperazin-1-yl]methanone], the EC50 was in the range of 1 to 5 µM. As for `COc1ccc(S(=O)(=O)N2CCC(c3ccccc3)CC2)cc1N1CCN(C(=O)c2ccc(F)cc2Cl)CC1` [Compound 025, (2-chloro-4-fluoro-phenyl)-[4-[2-methoxy-5-[(4-phenyl-1-piperidyl)sulfonyl]phenyl]piperazin-1-yl]methanone], the EC50 is under 1 µM. As to `CC(C)(C)NS(=O)(=O)c1cc(Cl)c(O)c(N2CCN(C(=O)c3ccc(F)cc3Cl)CC2)c1` [Compound 058, N-tert-butyl-3-chloro-5-[4-(2-chloro-4-fluoro-benzoyl)piperazin-1-yl]-4-hydroxy-benzenesulfonamide], the half-maximal effective concentration (EC50) was under 1 µM.

`COc1ccc(S(=O)(=O)NC2C3CC4CC(C3)CC2C4)cc1N1CCN(C(=O)c2ccc(F)cc2Cl)CC1` (centres unmarked) [Compound 034, N-(2-adamantyl)-3-[4-(2-chloro-4-fluoro-benzoyl)piperazin-1-yl]-4-methoxy-benzenesulfonamide]: the half-maximal effective concentration (EC50) was 5 to 10 µM. Take `COc1ccc(S(=O)(=O)N2CC3CN(Cc4ccccc4)CC3C2)cc1N1CCN(C(=O)c2ccc(F)cc2Cl)CC1` (centres unmarked) [Compound 040, [4-[5-[[2-benzyl-1,3,3a,4,6,6a-hexahydropyrrolo[3,4-c]pyrrol-5-yl]sulfonyl]-2-methoxy-phenyl]piperazin-1-yl]-(2-chloro-4-fluoro-phenyl)methanone]: the EC50 is 10 to 50 µM. Regarding `COc1ccc(S(=O)(=O)N(C)C2(C)COC2)cc1N1CCN(C(=O)c2ccc(F)cc2Cl)CC1` [Compound 018, 3-[4-(2-chloro-4-fluoro-benzoyl)piperazin-1-yl]-4-methoxy-N-methyl-N-(3-methyloxetan-3-yl)benzenesulfonamide], the EC50 lay in the range of 10 to 50 µM. Turning to `CCN(CC)S(=O)(=O)c1cnc(Cl)c(N2CCN(C(=O)c3ccc(F)cc3C(F)(F)F)CC2)c1` [Compound 044, 6-chloro-N,N-diethyl-5-[4-[4-fluoro-2-(trifluoromethyl)benzoyl]piperazin-1-yl]pyridine-3-sulfonamide], the EC50 lay within 10 to 50 µM.

As for `Cc1cc(S(=O)(=O)N2CCC(c3ccc(F)cc3)CC2)cc(N2CCN(C(=O)c3ccc(F)cc3Cl)CC2)c1O` [Compound 056, (2-chloro-4-fluoro-phenyl)-[4-[5-[[4-(4-fluorophenyl)-1-piperidyl]sulfonyl]-2-hydroxy-3-methyl-phenyl]piperazin-1-yl]methanone], the 50% effective concentration (EC50) was under 1 µM.

The values above are taken from US20260356810A1, “NOVEL PIPERAZINE-BASED SULFONAMIDES AND THEIR USE AS NEUROPROTECTIVE AND/OR NEURORESTORATIVE AGENTS” (GENECODE, priority 2022, published 2026).
